In patent US20030148259A1, “Method of identifying insulin secretion stimulating compounds, and the use of such compounds in treating insulin-secretion related disorders” (priority 2002, published 2003):
Ends that are not written are not given here.

Experiments:
β-cells = assay: Screening for CICR-active agents by periodic amplification of Ca2+ signals in single β-cells (fura-2 microfluorometry); format: cell-based, mouse
S5 cells = assay: Screening for CICR by periodic amplification of Ca2+ signals in S5 cells; format: cell-based, rat; conditions: MBED 50 μM, FIG. 4
Method: A new type of β-cell, called the S5 cell, which is particularly suitable for use in screening CICR-active drugs in β-cells has been developed by the present inventor. The S5 cells can be obtained from INS-1E cells by adapting the latter to culture conditions where fetal bovine serum is reduced to 2.5% and 2-mercaptoethanol is increased to 500 μM. The S5 cells are more differentiated, more slowly growing than ordinary insulinoma cells, and performs more like normal β-cells.
The S5 cells used in the examples below were obtained by adapting the cells to the above culture conditions over 37 passages. These cells were cultured in RPMI 1640, with L-Glutamine (Life Technologies: Catalog. No. 21875-034), supplemented with HEPES (10 mM, Life Technologies. Catalog. No. 15630-049), and sodium pyruvate (1 mM, Life Technologies. Catalog No. 11360-039). 2.5% (v/v) heat-inactivated fetal bovine serum was added to this medium and the medium was aliquoted in 50 ml tubes. To this medium, 500 μM 2-mercaptoethanol (Life Technologies. Catalog. No. 31350-010) and penicillin (50 i.u./ml), streptomycin (50 μg/ml) (Life Technologies. Catalog. No. 15070-063) was added immediately before the medium was used for culture. 2-mercaptoethanol (50 mM, stock) was aliquoted and stored frozen in 100 μl portions and was thawed just before use. […]

INS-1E cells [1] = assay: Insulin release from INS-1E cells (insulin ELISA); format: cell-based, rat
Method: Glucose-responsive clonal insulinoma cells (INS-1E) were cultured in RPMI-1640 medium supplemented with FBS (5%, v/v), penicillin (50 i.u. /ml), streptomycin (50 μg/ml), 2-mercaptoethanol (50 μM), HEPES (10 mM) and sodium pyruvate (1 mM) (Maechler, P. et al., IUBMB.Life 50, 27-31(2000). Medium was changed every other day.
INS-1E cells (200,000/ well) were seeded in 24-well plates and cultured for 6-7 days before using them for insulin release assay. On the day of experiment, cells were incubated in RPMI without glucose for 2 hours. Cells attached to the wells were then washed three times with warm (37° C.) medium (KRBH) containing (in mM): NaCl 140, NaHCO3 2, KCl 3.6, NaH2PO4 0.5, MgSO4 0.5, HEPES 10, CaCl2, 1.5, BSA 0.1% and incubated for 30 minutes at 37°. Cells were then incubated with 500 μl of the test solutions, by adding solution to one well at a time, every 20 sec. After one hour of incubation, 200 μl of supernatant was transferred to Eppendorf tubes, again one well at a time, every 20 sec. The collected materials were then centrifuged and supernatants were used for insulin ELISA.

mouse islets = assay: Insulin release from perifused islets (radio immunoassay); format: cell-based; conditions: for stimulation of insulin secretion from islets: 2.5 mM caffeine, 6 μM MBED, FIG. 6; for insulin secretion rate: 40-min stimulation
Method: Normal lean mice (BALB/c, Bomholtgard, Ry, Denmark) weighing 20-25 g were starved overnight and islets isolated by collagenase digestion and dextran purification method (Shi, C. L., Cell Transplant. 6, 33-37 (1997)). Islets were then cultured overnight in RPMI 1640 medium containing 10% FBS, 11.2 mM glucose, 60 i.u./ml penicillin and 60 μg/ml gentamicin, in a water-saturated atmosphere of air and 5% CO2.
Groups of 50 islets were transferred to a perifusion chamber housed in an infant incubator at 37° C. They were perifused at a rate of 1 ml/ min with Krebs-Ringer bicarbonate buffer supplemented with 20 mM HEPES, 0.1% BSA, glucose and drugs as required. The buffer was continuously gassed with 95% 02 and 5% CO2. The islets were perifused for 30 min with this medium containing 2 mM glucose, followed by a 40-min stimulation with 11.2 mM glucose alone (control), or 11.2 mM glucose plus drugs. During the last five minutes of perifusion with 2 mM glucose, three samples of effluent were collected to measure basal rate of insulin secretion. After switching to the 11.2 mM glucose the effluent was sampled every minute for the first five minutes and then at the intervals of 5 minutes. The average rate of insulin secretion (ng/min/50 islets) was calculated by integrating individual perifusion profile. Insulin was measured by radio immunoassay using crystalline mouse insulin as standard (Shi, C. L. cited above).

cAMP-PDEs = assay: Phosphodiesterase assay (cAMP-PDE activity in insulinoma cell fractions); format: biochemical, rat; conditions: for inhibition of cAMP-PDEs: methylxanthine 2.5 mM, FIG. 8D
Method: Rat insulinoma cells were detached from the flasks by trypsin-EDTA. The cells were homogenized in Tris buffer containing (in mM): Tris 10, sucrose 250, EDTA 1.0, phenylmethylsulphonyl fluoride 0.01 and benzamidine 1.0The homogenates were centrifuged (48,000 g, 20 min, 4° C.). Both soluble extracts and the pellet were assayed for cAMP-PDE activity with 0.5 μM 2,8-[^3H]-cyclic AMP as substrate (see Ahmad, M. et al., Br.J.Pharmacol., 129, 1228-1234 (2000) and Thompson, W. J. and Appleman, M. M., Biochemistry, 10, 311-316 (1971)). Assays were performed by the two-step radiometric assay under linear rate formation of product and where less than 10% of substrate is utilized. Activity was expressed as pmol/min/ml and percentage inhibition of the control value.

INS-1E cells [2] = assay: Confocal microscopy imaging of [Ca2+]i in fluo-3 loaded cells; format: cell-based, rat
Method: INS-1E cells were incubated in medium containing 5 mM glucose and 5 μM fluo-3 AM for 30 minutes followed by 10 min in medium without fluo-3Cover slips were mounted in a superfusion chamber, which was superfused with physiological solution at 3 ml/min. A three-way solenoid valve system allowed for rapid exchange of solutions. The dead space of the system (from valve inlet to chamber) was -0.5 ml. The flow was increased to 6 ml/min 15 s prior to switching from control solution to experimental solutions and reduced back to 3 ml/min after return to normal solution. [Ca^2+]1 were recorded with a BioRad laser scanning confocal system (BioRad MRC 1024) attached to a Nikon Diaphot 200 inverted microscope equipped with Nikon Plan Apo 60×1.4 NA oil immersion objective. Fluo-3 was excited at 488 nm (15 mW krypton-argon mixed gas laser, intensity attenuated to 3%) and the emitted light was collected through a 522 nm narrow band filter. Images were obtained with the iris closed to the minimum size that was compatible with good image quality. For each image, 3× Kalman averaging was used. Images were stored and converted to pseudo-color images using Scion Image software (Scion Corporation, Maryland).
Ratios were calculated using the initial fluorescence F0, and the observed fluorescence F using the equation R=F/F0, and these ratios were subsequently converted into [Ca^2+]i using the equation: [Ca^2+]i=RxKD/((KD/resting [Ca^2+]i)−R). […] Resting [Ca^2+]i in these cells under the conditions of experiment was 35 nM. All experiments were carried out at room temperature (25° C.).

INS-1E cells [3] = assay: Measurement of cAMP content; format: cell-based, rat; conditions: caffeine 0.25-3 mM
Method: INS-1E cells (20000 per well) were cultured for three days in 24 well plates. On the day of the experiments cells were washed and incubated for 30 min at 37° C. in the KRBH buffer containing 3 mM glucose. Cells were then washed again and solutions containing 11.2 mM glucose and test substances were added. After 10 min, incubations were terminated by removing the medium and precipitating cell protein in 80% ice-cold ethanol. Cells were then scraped and all contents of the wells were transferred to tubes. After centrifugation at 14,000 rpm for five min, the supernatants were collected and freeze-dried over-night. The cAMP content in each sample was determined with a radio ligand-binding assay using a bovine heart cAMP-binding protein as described by Pyne, N. J. and Tolan, D., Pyne, S. in Biochem.J 328 (Pt 2), 689-694 (1997).

[4] = methylxanthine 2.5 mM, 11.2 mM glucose, 1 hr, FIG. 8A/8C
[5] = Example 6, FIG. 3: 10 mM glucose

Cn1c2cnccc2c2c(Br)c(O)c(Br)cc21 [MBED, 5,7-dibromo-6-hydroxy-9-methylpyrido[3,4-b]indole]
periodic amplified Ca2+ release in β-cells (summary of screening) (β-cells): elicit periodic amplified Ca^2+ release | CICR (periodic amplification of Ca2+ signals) (S5 cells): CICR can clearly be identified | potency in stimulating insulin secretion relative to caffeine (INS-1E cells [1]; 11.2 mM glucose): about 400 times | insulin secretion (INS-1E cells [1]; MBED 6 μM, 3 mM glucose, FIG. 5A): no stimulation of insulin secretion | insulin secretion (INS-1E cells [1]; MBED 6 μM, 11.2 mM glucose, FIG. 5A): almost doubled the insulin secretion | dose response of insulin secretion (INS-1E cells [1]; MBED 0.1 to 100 μM, 11.2 mM glucose, FIG. 5B): stimulated insulin secretion in a does-dependent manner | potency relative to caffeine in islets (mouse islets; 6 μM MBED vs 2.5 mM caffeine): clearly more potent than caffeine | reversal of stimulated secretion on wash out (lack of major toxic effect) (mouse islets; 11.2 mM glucose): reversed completely on wash out | stimulation of insulin secretion from islets (mouse islets; 11.2 mM glucose): persistently stimulated both the first- and second-phases of insulin secretion | Cytosolic cAMP-PDE activity (cAMP-PDEs; MBED 5 μM): 27.7 ± 2.5 pmol/min/mL | Membrane cAMP-PDE activity (cAMP-PDEs; MBED 5 μM): 26.5 pmol/min/mL | Cytosolic cAMP-PDE activity (cAMP-PDEs; MBED 50 μM): 31.6 ± 0.7 pmol/min/mL | Membrane cAMP-PDE activity (cAMP-PDEs; MBED 50 μM): 23.2 pmol/min/mL | inhibition of PDEs (cAMP-PDEs; MBED 5 and 50 μM, Table 1): did not inhibit PDEs | potency relative to caffeine in increasing [Ca2+]i (INS-1E cells [2]): more potent than caffeine | change in [Ca2+]i (INS-1E cells [2]; MBED 50 μM, FIG. 7): increased [Ca^2+]i

C/C=C(/C)C(=O)O[C@H]1C(C)=C2[C@H]([C@@H]1OC(=O)CCCCCCC)[C@@](C)(OC(C)=O)C[C@H](OC(=O)CCC)[C@@]1(O)[C@H]2OC(=O)[C@@]1(C)O [thapsigargin]
basal insulin secretion (INS-1E cells [1]; thapsigargin-treated (Ca2+-depleted) cells): not different compared to that in controls cells | effect on glucose-dependent caffeine-stimulated secretion (INS-1E cells [1]; thapsigargin-treated (ER Ca2+ depleted) cells, caffeine 0.75 mM, FIG. 11A): significantly reduced but not abolished

glucagons-like peptide 1: test substance glucagons-like peptide 1 (HAEGTFTSDVSSYLEGQAAKEFIAWLVKGR; ends and bridges not checked; UniProt P01275 98-127, looked up)
periodic amplification of Ca2+ signals (CICR) (β-cells; Example 5, FIG. 2: 30 mM KCl, 10 μM D600 or verapamil, 13 mM glucose): gave rise to periodic amplification of Ca^2+ signals

Cn1cnc2c(=O)[nH]c(=O)n(C)c21 [3,9-dimethylxanthine]
insulin secretion (INS-1E cells [1]; [4]): equally effective as caffeine in stimulating insulin secretion | insulin secretion rate (mouse islets; 11.2 mM glucose): 2.76±0.81 ng/min/50 islets | stimulation of insulin secretion from islets (mouse islets; 11.2 mM glucose): no significant stimulatory effect | inhibition of cAMP-PDEs (cAMP-PDEs): slightly less potent than caffeine in inhibiting cAMP-PDEs

O=C1CN(/N=C/c2ccc(-c3ccc([N+](=O)[O-])cc3)o2)C(O)=N1 [dantrolene]
effect on glucose-dependent stimulation of insulin secretion by caffeine (INS-1E cells [1]; dantrolene 75 μM, FIG. 11B): abolished

Cn1c(=O)c2c(ncn2C)n(C)c1=O [caffeine]
periodic amplified Ca2+ release in β-cells (summary of screening) (β-cells): elicit periodic amplified Ca^2+ release | periodic amplification of Ca2+ signals (CICR) (β-cells; [5]): gave rise to periodic amplifications of Ca^2+ signals | concentration giving maximal stimulation of secretion (INS-1E cells [1]; FIG. 9B): 0.25 to 0.75 mM | insulin secretion (INS-1E cells [1]; caffeine 0.25 mM, FIG. 9B): near-maximal stimulation of insulin secretion | insulin secretion (INS-1E cells [1]; caffeine 0.75 mM, KATP channel bypassed by diazoxide and KCl, FIG. 8B): Stimulation of insulin secretion by caffeine (0.75 mM) was observed | insulin secretion rate (INS-1E cells [1]; caffeine 0.75 mM, without ryanodine): 328±22 ng/10^6 cell/hr | insulin secretion (INS-1E cells [1]; caffeine 2.5 mM, 3 mM glucose, 1 hr, FIG. 8A): did not alter insulin secretion | insulin secretion (INS-1E cells [1]; [4]): stimulated secretion | insulin secretion rate (mouse islets; 11.2 mM glucose): 5.06±1.17 ng/min/50 islets | stimulation of insulin secretion from islets (mouse islets; 11.2 mM glucose): persistently stimulated both the first- and second-phases of insulin secretion | effect on cAMP content (INS-1E cells [3]): did not increase cAMP content | change in [Ca2+]i (INS-1E cells [2]; caffeine 5 mM, FIG. 10 upper panel): transient increase on [Ca^2+]i

Cn1c(=O)c2ncn(C)c2n(C)c1=O [isocaffeine]
periodic amplification of Ca2+ signals (CICR) (β-cells; [5]): gave rise to periodic amplifications of Ca^2+ signals | insulin secretion (INS-1E cells [1]; [4]): stimulated insulin secretion significantly | insulin secretion rate (mouse islets; 11.2 mM glucose): 1.36±0.35 ng/min/50 islets | stimulation of insulin secretion from islets (mouse islets; 11.2 mM glucose): no significant stimulatory effect | inhibition of cAMP-PDEs (cAMP-PDEs): did not inhibit cAMP-PDEs

ryanodine
effect on glucose-induced insulin secretion (INS-1E cells [1]; 100 μM ryanodine, 1 hr exposure): did not alter the glucose-induced insulin secretion | insulin secretion rate (glucose-induced) (INS-1E cells [1]; 100 μM ryanodine, 1 hr exposure, n=4): 193±11 ng/10^6 cell/hr | insulin secretion rate (INS-1E cells [1]; caffeine 0.75 mM plus 100 μM ryanodine): 354±34 ng/10^6 cell/hr
